Test results from patent US10253052B2, “HBED-bisphosphonates, radiometal conjugates and their use as theranostic agents” (Five Eleven Pharma Inc., priority 2015, dated 2019).
“Also recorded” adds a separate entry of the source.

Tests used:
[1] = tested on: PSMA expressing LNCaP tumor; assay: Micro-PET imaging in PSMA expressing tumor bearing mouse; type: in vivo, nude mice; settings: 500 μCi, 60 min post injection, 15 min scan
Protocol: [^68Ga]1a, [^68Ga]BPAMD and [^18F]NaF were tested in normal CD-1 male mice. [^68Ga]1g was tested in PSMA expressing LNCaP tumor bearing nude mice. Mice received 300-500 uCi radiotracer through a tail vein injection. PET imaging was performed under isoflurane anaesthesia (2% isoflurane, 1.5 L/min oxygen). The microPET imaging was performed with a small animal PET (Mosaic by Phillips, USA). During PET measurements, the animals were placed in the prone position. At 60 min post injection of the radiotracer, data acquisition was performed for 15 min.

[2] = In vitro binding to hydroxyapatite; settings: 20 mg hydroxyapatite in saline, 10 min at room temperature
In short: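 Hydroxyapatite was pre-incubated 24 h in isotonic saline, then ^68Ga-labelled compound (1 μCi) was added and incubated 10 min at room temperature. After centrifugation and two saline washes, gamma counting of supernatants and solid gave percent ^68Ga bound to hydroxyapatite.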

[3] = In vivo biodistribution in mice; design: species or system normal CD-1 male mice; settings: iv
In short: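 Normal male CD-1 mice (25-30 g) received 20-30 μCi of ^68Ga-labelled tracer or [^18F]NaF intravenously and were sacrificed at 2, 30, 60 and 120 min. Harvested organs, with tibia and femur as bone, were weighed and gamma-counted; uptake is expressed as % ID/g wet tissue.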

[4] = tested on: PSMA positive LNCaP cells; assay: Cell uptake in PSMA positive LNCaP cells; type: cell-based; settings: 1 hr incubation at 37° C.
[5] = tested on: PSMA negative PC3 cells; assay: Cell uptake in PSMA negative PC3 cells; type: cell-based; settings: 1 hr incubation at 37° C.

Which results are given for `O=C([O-])CN(CCN(CC(=O)[O-])Cc1cc(CCC(=O)NC(P(=O)(O)O)P(=O)(O)O)ccc1[O-])Cc1cc(CCC(=O)NCCCCCC(=O)NCCCC[C@H](NC(=O)N[C@@H](CCC(=O)O)C(=O)O)C(=O)O)ccc1[O-].[68Ga+3]` [[^68Ga]1g]?
Micro-PET targeting (in words) [1]: targets both bone and PSMA binding sites; Hydroxyapatite Binding (%) [2]: 88.0 ± 10.5%; bone to blood ratio ([3]; 2 min): 0.97; bone to muscle ratio ([3]; 2 min): 3.71; Biodistribution: Blood ([3]; 2 min post injection): 8.34 ± 0.51 % dose/g; Biodistribution: Bone ([3]; 2 min post injection): 8.13 ± 1.87 % dose/g; Biodistribution: Brain ([3]; 2 min post injection): 0.21 ± 0.03 % dose/g; Biodistribution: Heart ([3]; 2 min post injection): 3.13 ± 0.15 % dose/g; Biodistribution: Kidney ([3]; 2 min post injection): 35.3 ± 3.75 % dose/g; Biodistribution: Liver ([3]; 2 min post injection): 1.73 ± 0.09 % dose/g; Biodistribution: Lung ([3]; 2 min post injection): 4.19 ± 0.50 % dose/g; Biodistribution: Muscle ([3]; 2 min post injection): 2.19 ± 0.11 % dose/g; Biodistribution: Pancreas ([3]; 2 min post injection): 1.69 ± 0.13 % dose/g; Biodistribution: Skin ([3]; 2 min post injection): 2.97 ± 0.14 % dose/g; Biodistribution: Spleen ([3]; 2 min post injection): 2.50 ± 0.41 % dose/g; bone to blood ratio ([3]; 30 min): 29; bone to muscle ratio ([3]; 30 min): 46; Biodistribution: Blood ([3]; 30 min (0.5 hr) post injection): 0.56 ± 0.10 % dose/g; Biodistribution: Bone ([3]; 30 min (0.5 hr) post injection): 16.3 ± 0.68 % dose/g; Biodistribution: Brain ([3]; 30 min (0.5 hr) post injection): 0.03 ± 0.00 % dose/g; Biodistribution: Heart ([3]; 30 min (0.5 hr) post injection): 0.45 ± 0.07 % dose/g; Biodistribution: Kidney ([3]; 30 min (0.5 hr) post injection): 77.1 ± 8.24 % dose/g; Biodistribution: Liver ([3]; 30 min (0.5 hr) post injection): 0.27 ± 0.02 % dose/g; Biodistribution: Lung ([3]; 30 min (0.5 hr) post injection): 1.02 ± 0.13 % dose/g; Biodistribution: Muscle ([3]; 30 min (0.5 hr) post injection): 0.35 ± 0.02 % dose/g; Biodistribution: Pancreas ([3]; 30 min (0.5 hr) post injection): 0.69 ± 0.02 % dose/g; Biodistribution: Skin ([3]; 30 min (0.5 hr) post injection): 0.65 ± 0.05 % dose/g; Biodistribution: Spleen ([3]; 30 min (0.5 hr) post injection): 2.09 ± 0.75 % dose/g; bone to blood ratio ([3]; 60 min): 53; bone to muscle ratio ([3]; 60 min): 74; Biodistribution: Blood ([3]; 60 min (1 hr) post injection): 0.28 ± 0.05 % dose/g; Biodistribution: Bone ([3]; 60 min (1 hr) post injection): 15.1 ± 1.04 % dose/g; Biodistribution: Brain ([3]; 60 min (1 hr) post injection): 0.03 ± 0.01 % dose/g; Biodistribution: Heart ([3]; 60 min (1 hr) post injection): 0.32 ± 0.03 % dose/g; Biodistribution: Kidney ([3]; 60 min (1 hr) post injection): 78.4 ± 7.11 % dose/g; Biodistribution: Liver ([3]; 60 min (1 hr) post injection): 0.18 ± 0.01 % dose/g; Biodistribution: Lung ([3]; 60 min (1 hr) post injection): 0.58 ± 0.02 % dose/g; Biodistribution: Muscle ([3]; 60 min (1 hr) post injection): 0.21 ± 0.02 % dose/g; Biodistribution: Pancreas ([3]; 60 min (1 hr) post injection): 0.37 ± 0.07 % dose/g; Biodistribution: Skin ([3]; 60 min (1 hr) post injection): 0.42 ± 0.06 % dose/g; Biodistribution: Spleen ([3]; 60 min (1 hr) post injection): 0.91 ± 0.13 % dose/g; bone to blood ratio ([3]; 120 min): 98; bone to muscle ratio ([3]; 120 min): 98; Biodistribution: Blood ([3]; 120 min post injection): 0.17 ± 0.03 % dose/g; Biodistribution: Bone ([3]; 120 min post injection): 17.0 ± 0.05 % dose/g; Biodistribution: Brain ([3]; 120 min post injection): 0.02 ± 0.00 % dose/g; Biodistribution: Heart ([3]; 120 min post injection): 0.20 ± 0.03 % dose/g; Biodistribution: Kidney ([3]; 120 min post injection): 70.3 ± 8.29 % dose/g; Biodistribution: Liver ([3]; 120 min post injection): 0.18 ± 0.02 % dose/g; Biodistribution: Lung ([3]; 120 min post injection): 0.47 ± 0.04 % dose/g; Biodistribution: Muscle ([3]; 120 min post injection): 0.17 ± 0.04 % dose/g; Biodistribution: Pancreas ([3]; 120 min post injection): 0.34 ± 0.03 % dose/g; Biodistribution: Skin ([3]; 120 min post injection): 0.29 ± 0.06 % dose/g; Biodistribution: Spleen ([3]; 120 min post injection): 0.87 ± 0.20 % dose/g; Cell uptake in PSMA positive LNCaP cells (in words) [4]: high cell uptake and retention only in LNCaP cells; also recorded: excellent uptake; Cell uptake in PSMA negative PC3 cells (in words) [5]: no uptake
